Assays:
[1] = target: T1, Recombinant human TDO comprising amino acids 19-407 (Homo sapiens, UniProt P48775); test: TDO2 enzymatic assay (NFK quantified by LCMS); assay type: biochemical; conditions: 15 nM enzyme, 200 μM L-tryptophan, pH7, 30 minutes pre-incubation at RT; mean values when measured multiple times; read-out: hTDO activity (IC50 in nM)
T1 construct: Recombinant human TDO comprising amino acids 19-407 with a N-terminal hexahistidine tag; hexahistidine (His6) (N); made in house; host or cells: E. coli
Method in brief: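 NFK formed over 30 min at RT from 200 μM L-tryptophan was measured by LCMS, normalized to d5-tryptophan, after compound (0.5 nM–10 μM, duplicates, 0.6% DMSO) was preincubated 30 min with 15 nM recombinant His-tagged TDO 19-407 in phosphate buffer pH 7. IC50 from four-parameter logistic fit; repeats averaged.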

[2] = target: T2, Recombinant full-length human IDO1 (Homo sapiens, UniProt P14902); test: IDO1 enzymatic assay (NFK quantified by LCMS); assay type: biochemical; conditions: 2 nM enzyme, 5 μM L-tryptophan, pH6.5, 30 minutes pre-incubation at RT; mean values when measured multiple times; read-out: hIDO activity (IC50 in nM)
T2 construct: Recombinant full-length human IDO1 with a N-terminal hexahistidine tag; hexahistidine (His6) (N); made in house; host or cells: E. coli
Method in brief: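 His-tagged human IDO1 (2 nM) in pH 6.5 phosphate buffer with ascorbate, methylene blue and catalase was preincubated with compound (10 μM–0.5 nM, 0.6% DMSO) for 30 min at RT. The reaction then ran with 5 μM L-Trp for 30 min. NFK was measured by LCMS against a d5-Trp standard, and IC50 was obtained by four-parameter fit.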

T2 sequence (P14902 whole entry): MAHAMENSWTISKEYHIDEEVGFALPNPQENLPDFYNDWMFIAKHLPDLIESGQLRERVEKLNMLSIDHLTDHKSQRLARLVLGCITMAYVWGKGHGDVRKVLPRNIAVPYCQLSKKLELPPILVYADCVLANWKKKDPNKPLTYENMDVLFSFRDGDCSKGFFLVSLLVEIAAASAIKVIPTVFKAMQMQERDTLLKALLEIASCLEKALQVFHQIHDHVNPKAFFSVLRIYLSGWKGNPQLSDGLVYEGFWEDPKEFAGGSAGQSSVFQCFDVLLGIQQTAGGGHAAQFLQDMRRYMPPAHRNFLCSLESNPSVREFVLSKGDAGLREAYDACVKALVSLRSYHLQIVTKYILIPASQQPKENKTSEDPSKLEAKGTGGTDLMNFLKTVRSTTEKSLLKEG
T1 sequence (P48775 19-406 limits assumed): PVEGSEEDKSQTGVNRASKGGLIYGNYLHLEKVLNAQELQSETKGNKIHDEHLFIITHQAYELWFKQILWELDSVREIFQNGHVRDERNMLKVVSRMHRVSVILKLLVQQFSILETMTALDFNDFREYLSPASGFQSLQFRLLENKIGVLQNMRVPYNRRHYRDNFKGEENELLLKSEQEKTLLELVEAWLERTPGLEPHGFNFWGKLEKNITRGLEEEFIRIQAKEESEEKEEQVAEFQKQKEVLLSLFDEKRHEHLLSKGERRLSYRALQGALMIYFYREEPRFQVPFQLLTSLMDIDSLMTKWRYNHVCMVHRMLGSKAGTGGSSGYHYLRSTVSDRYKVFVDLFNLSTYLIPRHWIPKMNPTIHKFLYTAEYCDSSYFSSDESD

| SMILES | IC50 [1] | IC50 [2] |
| --- | --- | --- |
| OC(c1ccc(-c2cncc3ccccc23)s1)c1c(C2CC2)sc2cncn12 (racemic) [Example 177, rac-(2-Cyclopropyl-imidazo[5,1-b]thiazol-3-yl)-(5-isoquinolin-4-yl-thiophen-2-yl)-methanol] | 8620 nM | 138 nM |
| OC(c1cn(-c2ccccc2)cn1)c1c(C2CC2)sc2cncn12 (racemic) [Example 178, rac-(2-Cyclopropyl-imidazo[5,1-b]thiazol-3-yl)-(1-phenyl-1H-imidazol-4-yl)-methanol] | > 10200 nM | 515 nM |
| O=c1[nH]c2ccc(-n3cc(C(O)c4c(C5CC5)sc5cncn45)nn3)cc2o1 (racemic) [Example 179, rac-6-{4-[(2-Cyclopropyl-imidazo[5,1-b]thiazol-3-yl)-hydroxy-methyl]-[1,2,3]triazol-1-yl}-3H-benzooxazol-2-one] | > 10200 nM | 5.36 nM |
| CCNC(=O)Nc1ccc(-n2cc(C(O)c3c(C4CC4)sc4cncn34)nn2)cc1OC (racemic) [Example 183, rac-1-(4-{4-[(2-Cyclopropyl-imidazo[5,1-b]thiazol-3-yl)-hydroxy-methyl]-[1,2,3]triazol-1-yl}-2-methoxy-phenyl)-3-ethyl-urea] | > 10200 nM | 15.5 nM |
| O=C(Nc1ccc(-n2cc(C(O)c3c(C4CC4)sc4cncn34)nn2)cc1)c1ccccc1 (racemic) [Example 189, rac-N-(4-{4-[(2-Cyclopropyl-imidazo[5,1-b]thiazol-3-yl)-hydroxy-methyl]-[1,2,3]triazol-1-yl}-phenyl)-benzamide] | > 10200 nM | 30.6 nM |
| O=c1[nH]c2ccc(-n3cc(C(O)c4c(C5CC5)sc5cncn45)nn3)cc2[nH]1 (racemic) [Example 194, rac-5-{4-[(2-Cyclopropyl-imidazo[5,1-b]thiazol-3-yl)-hydroxy-methyl]-[1,2,3]triazol-1-yl}-1,3-dihydro-benzoimidazol-2-one] | > 10200 nM | 70.4 nM |
| COc1cc(C#N)cc(-n2cc(C(O)c3c(C4CC4)sc4cncn34)nn2)c1 (racemic) [Example 197, rac-3-{4-[(2-Cyclopropyl-imidazo[5,1-b]thiazol-3-yl)-hydroxy-methyl]-[1,2,3]triazol-1-yl}-5-methoxy-benzonitrile] | > 10200 nM | 52.4 nM |
| COc1cc(-n2cc(C(O)c3c(C4CC4)sc4cncn34)nn2)cc(C#N)c1OC (racemic) [Example 198, rac-5-{4-[(2-Cyclopropyl-imidazo[5,1-b]thiazol-3-yl)-hydroxy-methyl]-[1,2,3]triazol-1-yl}-2,3-dimethoxy-benzonitrile] | > 10200 nM | 52.4 nM |
| N#Cc1cc(-n2cc(C(O)c3c(C4CC4)sc4cncn34)nn2)ccc1OC(F)(F)F (racemic) [Example 199, rac-5-{4-[(2-Cyclopropyl-imidazo[5,1-b]thiazol-3-yl)-hydroxy-methyl]-[1,2,3]triazol-1-yl}-2-trifluoromethoxy-benzonitrile] | > 10200 nM | 73.1 nM |
| OC(c1cn(-c2nccc(Br)c2Cl)nn1)c1c(C2CC2)sc2cncn12 (racemic) [Example 200, rac-[1-(4-Bromo-3-chloro-pyridin-2-yl)-1H-[1,2,3]triazol-4-yl]-(2-cyclopropyl-imidazo[5,1-b]thiazol-3-yl)-methanol] | > 10200 nM | 55.4 nM |
| OCCOCCOCCOc1ccc(-n2cc(C(O)c3c(C4CC4)sc4cncn34)nn2)cc1 (racemic) [Example 201, rac-2-{2-[2-(4-{4-[(2-Cyclopropyl-imidazo[5,1-b]thiazol-3-yl)-hydroxy-methyl]-[1,2,3]triazol-1-yl}-phenoxy)-ethoxy]-ethoxy}-ethanol] | > 10200 nM | 27.8 nM |
| OC(c1cn(-c2ccc(OCc3ccccn3)cc2)nn1)c1c(C2CC2)sc2cncn12 (racemic) [Example 203, rac-(2-Cyclopropyl-imidazo[5,1-b]thiazol-3-yl)-{1-[4-(pyridin-2-ylmethoxy)-phenyl]-1H-[1,2,3]triazol-4-yl}-methanol] | > 10200 nM | 1350 nM |
| CN(C)CCOc1ccc(-n2cc(C(O)c3c(C4CC4)sc4cncn34)nn2)cc1 (racemic) [Example 204, rac-(2-Cyclopropyl-imidazo[5,1-b]thiazol-3-yl)-{1-[4-(2-dimethylamino-ethoxy)-phenyl]-1H-[1,2,3]triazol-4-yl}-methanol] | > 10200 nM | 292 nM |

More lines, now with the values ahead:

| IC50 [1] | IC50 [2] | SMILES |
| --- | --- | --- |
| > 10200 nM | 33.6 nM | CC(C)(C)OC(=O)Nc1ccc(-n2cc(C(O)c3c(C4CC4)sc4cncn34)nn2)cc1 (racemic) [Example 180, rac-(4-{4-[(2-Cyclopropyl-imidazo[5,1-b]thiazol-3-yl)-hydroxy-methyl]-[1,2,3]triazol-1-yl}-phenyl)-carbamic acid tert-butyl ester] |
| 4330 nM | 7.86 nM | CCc1sc2cncn2c1C(O)c1cn(-c2ccc3[nH]c(=O)oc3c2)nn1 (racemic) [Example 181, rac-6-{4-[(2-Ethyl-imidazo[5,1-b]thiazol-3-yl)-hydroxy-methyl]-[1,2,3]triazol-1-yl}-3H-benzooxazol-2-one] |
| > 10200 nM | 26 nM | CNC(=O)c1ccc(-n2cc(C(O)c3c(C4CC4)sc4cncn34)nn2)cc1 (racemic) [Example 182, rac-4-{4-[(2-Cyclopropyl-imidazo[5,1-b]thiazol-3-yl)-hydroxy-methyl]-[1,2,3]triazol-1-yl}-N-methyl-benzamide] |
| > 10200 nM | 14.5 nM | O=C(NCCCO)c1ccc(-n2cc(C(O)c3c(C4CC4)sc4cncn34)nn2)cc1 (racemic) [Example 184, rac-4-{4-[(2-Cyclopropyl-imidazo[5,1-b]thiazol-3-yl)-hydroxy-methyl]-[1,2,3]triazol-1-yl}-N-(3-hydroxy-propyl)-benzamide] |
| > 10200 nM | 14.9 nM | NC(=O)c1ccc(-n2cc(C(O)c3c(C4CC4)sc4cncn34)nn2)cc1 (racemic) [Example 185, rac-4-{4-[(2-Cyclopropyl-imidazo[5,1-b]thiazol-3-yl)-hydroxy-methyl]-[1,2,3]triazol-1-yl}-benzamide] |
| > 10200 nM | 17.3 nM | O=C(NCCO)c1ccc(-n2cc(C(O)c3c(C4CC4)sc4cncn34)nn2)cc1 (racemic) [Example 186, rac-4-{4-[(2-Cyclopropyl-imidazo[5,1-b]thiazol-3-yl)-hydroxy-methyl]-[1,2,3]triazol-1-yl}-N-(2-hydroxy-ethyl)-benzamide] |
| > 10200 nM | 13.7 nM | CC(C)(C)C(=O)Nc1ccc(-n2cc(C(O)c3c(C4CC4)sc4cncn34)nn2)cc1 (racemic) [Example 187, rac-N-(4-{4-[(2-Cyclopropyl-imidazo[5,1-b]thiazol-3-yl)-hydroxy-methyl]-[1,2,3]triazol-1-yl}-phenyl)-2,2-dimethyl-propionamide] |
| 8320 nM | 37.8 nM | CCCCNC(=O)Nc1ccc(-n2cc(C(O)c3c(C4CC4)sc4cncn34)nn2)cc1 (racemic) [Example 188, rac-1-Butyl-3-(4-{4-[(2-cyclopropyl-imidazo[5,1-b]thiazol-3-yl)-hydroxy-methyl]-[1,2,3]triazol-1-yl}-phenyl)-urea] |
| > 10200 nM | 8.8 nM | O=C(NCc1ccco1)c1ccc(-n2cc(C(O)c3c(C4CC4)sc4cncn34)nn2)cc1 (racemic) [Example 190, rac-4-{4-[(2-Cyclopropyl-imidazo[5,1-b]thiazol-3-yl)-hydroxy-methyl]-[1,2,3]triazol-1-yl}-N-furan-2-ylmethyl-benzamide] |
| > 10200 nM | 109 nM | CCN(C)C(=O)c1ccc(-n2cc(C(O)c3c(C4CC4)sc4cncn34)nn2)cc1 (racemic) [Example 191, rac-4-{4-[(2-Cyclopropyl-imidazo[5,1-b]thiazol-3-yl)-hydroxy-methyl]-[1,2,3]triazol-1-yl}-N-ethyl-N-methyl-benzamide] |
| > 10200 nM | 13.5 nM | CC(C)C(=O)Nc1ccc(-n2cc(C(O)c3c(C4CC4)sc4cncn34)nn2)cc1 (racemic) [Example 192, rac-N-(4-{4-[(2-Cyclopropyl-imidazo[5,1-b]thiazol-3-yl)-hydroxy-methyl]-[1,2,3]triazol-1-yl}-phenyl)-isobutyramide] |
| > 10200 nM | 9.02 nM | C=CCNC(=O)c1ccc(-n2cc(C(O)c3c(C4CC4)sc4cncn34)nn2)cc1 (racemic) [Example 193, rac-N-Allyl-4-{4-[(2-cyclopropyl-imidazo[5,1-b]thiazol-3-yl)-hydroxy-methyl]-[1,2,3]triazol-1-yl}-benzamide] |
| > 10200 nM | 145 nM | CN(C)C(=O)c1ccc(-n2cc(C(O)c3c(C4CC4)sc4cncn34)nn2)cc1 (racemic) [Example 195, rac-4-{4-[(2-Cyclopropyl-imidazo[5,1-b]thiazol-3-yl)-hydroxy-methyl]-[1,2,3]triazol-1-yl}-N,N-dimethyl-benzamide] |
| > 10200 nM | 17.1 nM | CCc1sc2cncn2c1C(O)c1cn(-c2ccc(C(=O)NCCOC)cc2)nn1 (racemic) [Example 196, rac-4-{4-[(2-Ethyl-imidazo[5,1-b]thiazol-3-yl)-hydroxy-methyl]-[1,2,3]triazol-1-yl}-N-(2-methoxy-ethyl)-benzamide] |

Reference: patent US20200405696A1, “INHIBITORS OF INDOLEAMINE 2,3-DIOXYGENASE AND/OR TRYPTOPHAN 2,3-DIOXYGENASE” (IDORSIA PHARMACEUTICALS LTD, priority 2018, published 2020)
